Data reported in ChEMBL document CHEMBL4507266, “Data for DCP probe BAY-784” (2021).

Tests used:
[1] = test system: ALK tyrosine kinase receptor (Homo sapiens), Q9UM73 [L1196M]; conditions: Compound concentration 1000.0 nM
[2] = molecular target: Glycogen synthase kinase-3 beta (Homo sapiens) (UniProt P49841); conditions: Compound concentration 1000.0 nM
[3] = molecular target: Serine/threonine-protein kinase PAK 4 (Homo sapiens) (UniProt O96013); conditions: Compound concentration 1000.0 nM
[4] = test system: Mast/stem cell growth factor receptor Kit (Homo sapiens), P10721 [D816H]; conditions: Compound concentration 1000.0 nM
Mast/stem cell growth factor receptor Kit (Homo sapiens), P10721 [D816H], sequence (P10721 whole entry D816H): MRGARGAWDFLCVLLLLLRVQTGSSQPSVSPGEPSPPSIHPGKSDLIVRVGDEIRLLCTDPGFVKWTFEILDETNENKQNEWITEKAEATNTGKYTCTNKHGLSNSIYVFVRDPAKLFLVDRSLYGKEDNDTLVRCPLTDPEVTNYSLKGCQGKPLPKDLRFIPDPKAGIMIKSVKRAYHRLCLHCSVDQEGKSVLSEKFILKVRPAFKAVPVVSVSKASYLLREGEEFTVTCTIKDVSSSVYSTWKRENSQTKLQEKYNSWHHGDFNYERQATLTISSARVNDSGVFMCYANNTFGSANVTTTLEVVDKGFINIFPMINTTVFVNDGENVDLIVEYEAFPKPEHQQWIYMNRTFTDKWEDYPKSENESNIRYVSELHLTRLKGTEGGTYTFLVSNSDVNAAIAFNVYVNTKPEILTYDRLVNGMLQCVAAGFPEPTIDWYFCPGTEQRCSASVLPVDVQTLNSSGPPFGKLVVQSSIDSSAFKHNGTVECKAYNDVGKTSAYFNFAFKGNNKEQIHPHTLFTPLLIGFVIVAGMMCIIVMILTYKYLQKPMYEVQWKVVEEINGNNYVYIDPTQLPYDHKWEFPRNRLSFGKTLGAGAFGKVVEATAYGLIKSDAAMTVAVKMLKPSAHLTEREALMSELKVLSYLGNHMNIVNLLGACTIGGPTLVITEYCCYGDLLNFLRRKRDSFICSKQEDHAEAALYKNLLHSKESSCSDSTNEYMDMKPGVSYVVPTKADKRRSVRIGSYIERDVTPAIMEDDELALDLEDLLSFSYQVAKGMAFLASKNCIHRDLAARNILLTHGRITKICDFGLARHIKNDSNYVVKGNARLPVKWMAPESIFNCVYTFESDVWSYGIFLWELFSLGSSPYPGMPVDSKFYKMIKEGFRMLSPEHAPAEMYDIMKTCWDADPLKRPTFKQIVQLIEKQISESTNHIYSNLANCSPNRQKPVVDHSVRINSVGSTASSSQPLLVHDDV

[5] = test system: Receptor-type tyrosine-protein kinase FLT3 (Homo sapiens), P36888 [D835V]; conditions: Compound concentration 1000.0 nM
[6] = molecular target: Ankyrin repeat and protein kinase domain-containing protein 1 (Homo sapiens) (UniProt Q8NFD2); conditions: Compound concentration 1000.0 nM
[7] = molecular target: Ephrin type-A receptor 7 (Homo sapiens) (UniProt Q15375); conditions: Compound concentration 1000.0 nM
[8] = molecular target: Serine/threonine-protein kinase Chk2 (Homo sapiens) (UniProt O96017); conditions: Compound concentration 1000.0 nM
[9] = molecular target: Serine/threonine-protein kinase mTOR (Homo sapiens) (UniProt P42345); conditions: Compound concentration 1000.0 nM
[10] = molecular target: Tyrosine-protein kinase Tec (Homo sapiens) (UniProt P42680); conditions: Compound concentration 1000.0 nM
[11] = molecular target: Serine/threonine-protein kinase RIO1 (Homo sapiens) (UniProt Q9BRS2); conditions: Compound concentration 1000.0 nM
[12] = molecular target: Serine/threonine-protein kinase Nek4 (Homo sapiens) (UniProt P51957); conditions: Compound concentration 1000.0 nM
Serine/threonine-protein kinase Nek4 (Homo sapiens), sequence (P51957 whole entry, looked up): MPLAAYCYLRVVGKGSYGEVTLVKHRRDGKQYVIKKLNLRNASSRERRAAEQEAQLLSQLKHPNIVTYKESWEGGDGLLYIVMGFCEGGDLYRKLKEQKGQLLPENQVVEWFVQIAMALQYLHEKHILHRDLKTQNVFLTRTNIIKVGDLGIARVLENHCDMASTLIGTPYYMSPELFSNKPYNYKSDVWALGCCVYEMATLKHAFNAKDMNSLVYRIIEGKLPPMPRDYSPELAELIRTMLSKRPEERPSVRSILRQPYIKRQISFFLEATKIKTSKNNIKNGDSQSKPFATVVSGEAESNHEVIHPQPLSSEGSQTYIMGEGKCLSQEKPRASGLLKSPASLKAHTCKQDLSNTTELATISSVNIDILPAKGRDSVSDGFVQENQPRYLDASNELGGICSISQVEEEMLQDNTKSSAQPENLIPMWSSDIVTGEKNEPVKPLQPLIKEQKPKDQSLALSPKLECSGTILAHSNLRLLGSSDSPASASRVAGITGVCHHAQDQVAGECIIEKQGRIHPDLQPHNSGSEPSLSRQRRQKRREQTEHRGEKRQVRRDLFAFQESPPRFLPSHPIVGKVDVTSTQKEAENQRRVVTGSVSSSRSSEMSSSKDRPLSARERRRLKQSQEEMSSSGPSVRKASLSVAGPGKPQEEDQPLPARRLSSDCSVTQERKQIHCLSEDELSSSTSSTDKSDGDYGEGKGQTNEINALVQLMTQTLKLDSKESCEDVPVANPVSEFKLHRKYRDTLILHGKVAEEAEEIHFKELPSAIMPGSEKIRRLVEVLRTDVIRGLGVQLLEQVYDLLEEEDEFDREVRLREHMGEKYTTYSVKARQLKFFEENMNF

[13] = molecular target: Serine/threonine-protein kinase TAO1 (Homo sapiens) (UniProt Q7L7X3); conditions: Compound concentration 1000.0 nM
[14] = molecular target: TRAF2 and NCK-interacting protein kinase (Homo sapiens) (UniProt Q9UKE5); conditions: Compound concentration 1000.0 nM
[15] = molecular target: Interleukin-1 receptor-associated kinase 4 (Homo sapiens) (UniProt Q9NWZ3); conditions: Compound concentration 1000.0 nM
[16] = molecular target: Calcium/calmodulin-dependent protein kinase type II subunit gamma (Homo sapiens) (UniProt Q13555); conditions: Compound concentration 1000.0 nM
Calcium/calmodulin-dependent protein kinase type II subunit gamma (Homo sapiens), sequence (Q13555 whole entry): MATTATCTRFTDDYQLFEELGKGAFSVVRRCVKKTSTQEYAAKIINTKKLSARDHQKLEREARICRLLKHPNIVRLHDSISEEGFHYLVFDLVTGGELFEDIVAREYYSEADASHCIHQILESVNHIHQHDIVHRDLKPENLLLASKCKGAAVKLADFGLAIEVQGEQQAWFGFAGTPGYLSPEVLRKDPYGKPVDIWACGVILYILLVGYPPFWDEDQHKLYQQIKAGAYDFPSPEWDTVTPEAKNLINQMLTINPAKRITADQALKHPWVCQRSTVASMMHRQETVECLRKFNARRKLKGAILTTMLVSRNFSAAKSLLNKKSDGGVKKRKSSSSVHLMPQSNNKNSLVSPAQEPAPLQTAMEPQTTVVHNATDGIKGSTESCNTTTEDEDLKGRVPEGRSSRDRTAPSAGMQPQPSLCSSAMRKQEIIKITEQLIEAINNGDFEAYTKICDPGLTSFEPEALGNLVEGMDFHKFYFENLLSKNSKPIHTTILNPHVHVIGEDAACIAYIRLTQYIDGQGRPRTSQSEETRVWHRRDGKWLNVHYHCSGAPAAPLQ

[17] = molecular target: Histamine H3 receptor (Homo sapiens) (UniProt Q9Y5N1); conditions: Compound concentration 10.0 uM
[18] = molecular target: Dual specificity protein kinase TTK (Homo sapiens) (UniProt P33981); conditions: Compound concentration 1000.0 nM
[19] = molecular target: Mast/stem cell growth factor receptor Kit (Homo sapiens) (UniProt P10721); conditions: Compound concentration 1000.0 nM
Mast/stem cell growth factor receptor Kit (Homo sapiens), sequence (P10721 whole entry): as the sequence (P10721 whole entry D816H) above, with H816D counted along it

[20] = molecular target: Serine/threonine-protein kinase SIK2 (Homo sapiens) (UniProt Q9H0K1); conditions: Compound concentration 1000.0 nM
[21] = molecular target: Serine/threonine-protein kinase SBK1 (Homo sapiens) (UniProt Q52WX2); conditions: Compound concentration 1000.0 nM
Serine/threonine-protein kinase SBK1 (Homo sapiens), sequence (Q52WX2 whole entry): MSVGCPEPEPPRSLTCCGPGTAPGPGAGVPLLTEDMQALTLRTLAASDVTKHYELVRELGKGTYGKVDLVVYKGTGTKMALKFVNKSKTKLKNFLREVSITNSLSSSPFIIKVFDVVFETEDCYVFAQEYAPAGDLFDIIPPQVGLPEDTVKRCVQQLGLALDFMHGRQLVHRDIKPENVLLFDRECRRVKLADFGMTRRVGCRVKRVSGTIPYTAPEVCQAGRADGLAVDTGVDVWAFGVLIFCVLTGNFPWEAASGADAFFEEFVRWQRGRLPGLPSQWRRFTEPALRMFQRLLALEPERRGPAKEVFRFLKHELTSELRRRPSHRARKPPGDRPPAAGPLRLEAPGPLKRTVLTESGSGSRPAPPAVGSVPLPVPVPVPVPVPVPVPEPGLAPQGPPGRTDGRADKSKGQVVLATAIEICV

[22] = molecular target: Phosphatidylinositol 4-phosphate 5-kinase type-1 alpha (Homo sapiens) (UniProt Q99755); conditions: Compound concentration 1000.0 nM
[23] = molecular target: Serine/threonine-protein kinase Sgk3 (Homo sapiens) (UniProt Q96BR1); conditions: Compound concentration 1000.0 nM
[24] = molecular target: 5-hydroxytryptamine receptor 7 (Homo sapiens) (UniProt P34969); conditions: Compound concentration 10.0 uM
[25] = molecular target: Cyclin-dependent kinase-like 1 (Homo sapiens) (UniProt Q00532); conditions: Compound concentration 1000.0 nM
Cyclin-dependent kinase-like 1 (Homo sapiens), sequence (Q00532 whole entry): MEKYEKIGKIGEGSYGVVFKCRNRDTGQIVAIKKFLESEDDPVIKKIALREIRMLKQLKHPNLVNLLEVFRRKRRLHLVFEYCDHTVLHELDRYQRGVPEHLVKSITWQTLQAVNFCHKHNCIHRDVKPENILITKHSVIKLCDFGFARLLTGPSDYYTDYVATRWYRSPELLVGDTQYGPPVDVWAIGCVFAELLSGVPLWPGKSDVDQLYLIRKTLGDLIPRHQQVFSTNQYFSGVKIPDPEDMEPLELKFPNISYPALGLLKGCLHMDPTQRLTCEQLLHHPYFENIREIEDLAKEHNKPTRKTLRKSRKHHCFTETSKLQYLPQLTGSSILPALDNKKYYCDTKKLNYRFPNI

[26] = molecular target: High affinity nerve growth factor receptor (Homo sapiens) (UniProt P04629); conditions: Compound concentration 1000.0 nM
[27] = molecular target: Sodium-dependent serotonin transporter (Homo sapiens) (UniProt P31645); conditions: Compound concentration 10.0 uM
[28] = molecular target: 5-hydroxytryptamine receptor 2B (Homo sapiens) (UniProt P41595); conditions: Compound concentration 10.0 uM
[29] = molecular target: Delta-type opioid receptor (Homo sapiens) (UniProt P41143); conditions: Compound concentration 10.0 uM
[30] = molecular target: Phosphatidylinositol 4,5-bisphosphate 3-kinase catalytic subunit beta isoform (Homo sapiens) (UniProt P42338); conditions: Compound concentration 1000.0 nM
[31] = molecular target: Ribosomal protein S6 kinase alpha-3 (Homo sapiens) (UniProt P51812); conditions: Compound concentration 1000.0 nM
[32] = test system: Phosphatidylinositol 4,5-bisphosphate 3-kinase catalytic subunit alpha isoform (Homo sapiens), P42336 [E545K]; conditions: Compound concentration 1000.0 nM
[33] = molecular target: Calcium/calmodulin-dependent protein kinase type IV (Homo sapiens) (UniProt Q16566); conditions: Compound concentration 1000.0 nM
[34] = molecular target: Serine/threonine-protein kinase TBK1 (Homo sapiens) (UniProt Q9UHD2); conditions: Compound concentration 1000.0 nM
[35] = molecular target: Ribosomal protein S6 kinase alpha-1 (Homo sapiens) (UniProt Q15418); conditions: Compound concentration 1000.0 nM
[36] = molecular target: Serine/threonine-protein kinase 32C (Homo sapiens) (UniProt Q86UX6); conditions: Compound concentration 1000.0 nM
[37] = molecular target: Casein kinase I isoform gamma-3 (Homo sapiens) (UniProt Q9Y6M4); conditions: Compound concentration 1000.0 nM
Casein kinase I isoform gamma-3 (Homo sapiens), sequence (Q9Y6M4 whole entry, looked up, canonical isoform): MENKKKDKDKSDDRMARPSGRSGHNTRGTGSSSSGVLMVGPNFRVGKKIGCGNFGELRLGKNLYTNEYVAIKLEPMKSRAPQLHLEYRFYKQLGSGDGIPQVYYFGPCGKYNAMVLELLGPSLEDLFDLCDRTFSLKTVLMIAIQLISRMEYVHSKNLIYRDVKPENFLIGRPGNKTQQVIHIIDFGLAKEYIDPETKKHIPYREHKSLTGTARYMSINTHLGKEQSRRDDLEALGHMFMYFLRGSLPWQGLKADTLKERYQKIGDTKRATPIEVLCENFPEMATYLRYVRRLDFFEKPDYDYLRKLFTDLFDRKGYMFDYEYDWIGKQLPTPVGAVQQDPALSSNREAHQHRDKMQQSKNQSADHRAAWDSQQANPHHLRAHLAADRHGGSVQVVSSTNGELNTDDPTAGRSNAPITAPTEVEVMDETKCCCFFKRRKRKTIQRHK

[38] = molecular target: Fibroblast growth factor receptor 2 (Homo sapiens) (UniProt P21802); conditions: Compound concentration 1000.0 nM
[39] = molecular target: 5-hydroxytryptamine receptor 2A (Homo sapiens) (UniProt P28223); conditions: Compound concentration 10.0 uM
[40] = molecular target: Ephrin type-A receptor 3 (Homo sapiens) (UniProt P29320); conditions: Compound concentration 1000.0 nM
[41] = molecular target: Insulin receptor-related protein (Homo sapiens) (UniProt P14616); conditions: Compound concentration 1000.0 nM
Insulin receptor-related protein (Homo sapiens), sequence (P14616 27-742 limits assumed): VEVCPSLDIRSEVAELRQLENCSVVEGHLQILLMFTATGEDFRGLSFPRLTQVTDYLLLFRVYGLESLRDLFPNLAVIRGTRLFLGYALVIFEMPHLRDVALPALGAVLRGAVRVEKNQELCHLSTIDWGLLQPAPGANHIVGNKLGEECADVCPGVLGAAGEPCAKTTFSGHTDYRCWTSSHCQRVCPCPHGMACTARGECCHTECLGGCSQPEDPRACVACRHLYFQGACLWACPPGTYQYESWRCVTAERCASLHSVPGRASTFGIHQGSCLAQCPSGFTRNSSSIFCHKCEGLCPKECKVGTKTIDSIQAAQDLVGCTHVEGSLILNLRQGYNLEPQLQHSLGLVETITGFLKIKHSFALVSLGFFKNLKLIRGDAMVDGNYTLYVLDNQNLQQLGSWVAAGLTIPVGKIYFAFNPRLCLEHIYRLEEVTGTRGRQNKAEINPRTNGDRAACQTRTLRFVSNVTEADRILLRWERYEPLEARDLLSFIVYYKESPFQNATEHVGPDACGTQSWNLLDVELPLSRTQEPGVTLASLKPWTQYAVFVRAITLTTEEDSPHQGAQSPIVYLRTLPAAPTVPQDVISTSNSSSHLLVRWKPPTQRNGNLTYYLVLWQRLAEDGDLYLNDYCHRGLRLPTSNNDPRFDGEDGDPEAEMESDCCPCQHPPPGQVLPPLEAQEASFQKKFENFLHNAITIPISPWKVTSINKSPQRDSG
Insulin receptor-related protein (Homo sapiens), sequence (P14616 747-1297 limits assumed): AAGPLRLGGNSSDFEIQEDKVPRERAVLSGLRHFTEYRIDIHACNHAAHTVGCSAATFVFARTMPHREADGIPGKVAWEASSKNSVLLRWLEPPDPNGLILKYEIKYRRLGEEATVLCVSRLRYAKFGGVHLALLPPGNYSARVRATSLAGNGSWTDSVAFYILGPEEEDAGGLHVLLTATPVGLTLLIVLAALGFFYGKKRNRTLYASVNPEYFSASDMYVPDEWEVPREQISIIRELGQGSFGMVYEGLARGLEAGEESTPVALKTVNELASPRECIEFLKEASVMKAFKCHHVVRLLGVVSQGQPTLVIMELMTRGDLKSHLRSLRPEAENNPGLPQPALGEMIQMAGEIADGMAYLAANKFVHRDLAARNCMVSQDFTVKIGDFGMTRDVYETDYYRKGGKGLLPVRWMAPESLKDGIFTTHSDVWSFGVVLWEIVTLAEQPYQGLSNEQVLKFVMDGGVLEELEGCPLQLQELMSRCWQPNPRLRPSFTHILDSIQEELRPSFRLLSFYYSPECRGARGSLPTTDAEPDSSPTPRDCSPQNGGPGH

[42] = molecular target: Activin receptor type-1 (Homo sapiens) (UniProt Q04771); conditions: Compound concentration 1000.0 nM
[43] = molecular target: Macrophage-stimulating protein receptor (Homo sapiens) (UniProt Q04912); conditions: Compound concentration 1000.0 nM
[44] = molecular target: Cyclin-dependent kinase 18 (Homo sapiens) (UniProt Q07002); conditions: Compound concentration 1000.0 nM
[45] = molecular target: Mast/stem cell growth factor receptor Kit (Homo sapiens) (UniProt P10721); conditions: Compound concentration 1000.0 nM; remark: listed apart in the source

O=C(NCc1ncc(C(F)(F)F)cc1Cl)c1ccc2c(c1)C1(CCS(=O)(=O)CC1)[C@H](C1CC1)N2S(=O)(=O)c1ccc(F)cc1 [BAY-784]
inactive: residual activity [1] 76% | residual activity [2] 87% | residual activity [3] 100% | residual activity [4] 79% | residual activity [5] 70% | residual activity [6] 89% | residual activity [7] 100% | residual activity [8] 100% | residual activity [9] 100% | residual activity [10] 100% | residual activity [11] 100% | residual activity [12] 99% | residual activity [13] 100% | residual activity [14] 100% | residual activity [15] 100% | residual activity [16] 100% | inhibition [17] -8.26% | residual activity [18] 78% | residual activity [19] 76% | residual activity [20] 96% | residual activity [21] 97% | residual activity [22] 100% | residual activity [23] 99% | inhibition [24] -8.16% | residual activity [25] 90% | residual activity [26] 80% | inhibition [27] -5.4% | inhibition [28] -2.53% | inhibition [29] -0.34% | residual activity [30] 68% | residual activity [31] 70% | residual activity [32] 84% | residual activity [33] 86% | residual activity [34] 80% | residual activity [35] 99% | residual activity [36] 100% | residual activity [37] 100% | residual activity [38] 86% | inhibition [39] -4.7% | residual activity [40] 100% | residual activity [41] 100% | residual activity [42] 100% | residual activity [43] 99% | residual activity [44] 100% | residual activity [45] 100%

O=C(NCc1ncc(C(F)(F)F)cc1Cl)c1ccc2c(c1)C1(CCS(=O)(=O)CC1)[C@@H](C1CC1)N2S(=O)(=O)c1ccc(F)cc1 [BAY-786]
inactive: residual activity [1] 87% | residual activity [2] 90% | residual activity [3] 89% | residual activity [4] 64% | residual activity [5] 76% | residual activity [6] 76% | residual activity [7] 100% | residual activity [8] 97% | residual activity [9] 92% | residual activity [10] 100% | residual activity [11] 78% | residual activity [12] 99% | residual activity [13] 91% | residual activity [14] 71% | residual activity [15] 90% | residual activity [16] 84% | inhibition [17] 6.92% | residual activity [18] 100% | residual activity [19] 82% | residual activity [20] 100% | residual activity [21] 92% | residual activity [22] 100% | residual activity [23] 83% | inhibition [24] -4.83% | residual activity [25] 100% | residual activity [26] 75% | inhibition [27] -4.88% | inhibition [28] -2.32% | inhibition [29] -2.65% | residual activity [30] 75% | residual activity [31] 57% | residual activity [32] 74% | residual activity [33] 71% | residual activity [34] 84% | residual activity [35] 100% | residual activity [36] 100% | residual activity [37] 100% | residual activity [38] 98% | inhibition [39] 5.01% | residual activity [40] 67% | residual activity [41] 100% | residual activity [42] 97% | residual activity [43] 100% | residual activity [44] 100% | residual activity [45] 82%
